Type in all cases: in vivo
The subject of test [1] is Echinochloa oryzicola. Nature of the test: Herbicidal activity by paddy field soil treatment (Test Example 1). Particulars: 1000 g of effective component per hectare, evaluated on day 21 after the treatment, criteria of Table 72. The arrangement: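 index 0 to 10 in 10% steps of herbicidal effect with 10 meaning complete death and 0 below 10%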. Summed up:
(§1)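 Paddy soil in pots sown with seeds, flooded to 3 cm; next day wettable powder diluted in water applied to water surface at 1000 g active ingredient/ha. Greenhouse-grown; herbicidal effect scored on day 21 after treatment against rating criteria.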

The test system of test [2] is Monochoria vaginalis. Described as above. Particulars: 1000 g of effective component per hectare, evaluated on day 21 after the treatment, criteria of Table 72. The arrangement: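 index 0 to 10 in 10% steps of herbicidal effect with 10 meaning complete death and 0 below 10%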. The essentials: as §1
The test system of test [3] is Scirpus juncoides Rocxb. The description is as above. The arrangement: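 index 0 to 10 in 10% steps of herbicidal effect with 10 meaning complete death and 0 below 10%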. The following applies: applied on water surface, 1000 g of effective component per hectare, day 21 after the treatment. Summed up:
as §1

Test [4] concerns A. retroflexus. Briefly: Herbicidal activity by field soil treatment (Test example 2). The following applies: 1000 g effective component per hectare, day 21 after the treatment. Also on record: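 index 0 to 10 in 10% steps of herbicidal effect with 10 meaning complete death and 0 below 10%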. The essentials:
(§2)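 Seeds of the four weeds sown in field soil in pots; wettable powder diluted in water sprayed pre-emergence on soil surface at 1000 L/ha, giving 1000 g active per hectare. Greenhouse grown; herbicidal effect scored on day 21 after treatment by set criteria.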

In test [5] the test system is Echinochloa crus-galli. The test is described as above. The arrangement: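 index 0 to 10 in 10% steps of herbicidal effect with 10 meaning complete death and 0 below 10%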. The following applies: 1000 g effective component per hectare, day 21 after the treatment. Summed up:
as §2

Test [6] has as its system Indian millet. Described as above. The following applies: 1000 g effective component per hectare, day 21 after the treatment. The arrangement: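 index 0 to 10 in 10% steps of herbicidal effect with 10 meaning complete death and 0 below 10%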. The essentials: as §2
Test [7] deals with foxtail. Described as above. Particulars: 1000 g effective component per hectare, day 21 after the treatment. Summed up: as §2
Test [8] has as its system A. retroflexus. Nature of the test: Herbicidal activity by field foliage treatment (Test example 3). Also on record: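 index 0 to 10 in 10% steps of herbicidal effect with 10 meaning complete death and 0 below 10%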. Particulars: 1000 g effective component per hectare, day 14 after the treatment. Summed up:
(§3)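 Field soil in pots; Indian millet and A. retroflexus grown 2 weeks in greenhouse, then sprayed over whole plant with water-diluted wettable powder at 1000 L/ha, giving 1000 g active component/ha. Herbicidal effect scored by set criteria on day 14 after treatment.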

Test [9] concerns Indian millet. The description is as above. Also on record: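 index 0 to 10 in 10% steps of herbicidal effect with 10 meaning complete death and 0 below 10%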. Particulars: 1000 g effective component per hectare, day 14 after the treatment. Summed up: as §3
Test [10] relates to Echinochloa crus-galli. The test is described as above. Particulars: 1000 g effective component per hectare, day 14 after the treatment. The arrangement: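 index 0 to 10 in 10% steps of herbicidal effect with 10 meaning complete death and 0 below 10%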. The essentials: (§4)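 Potted field-soil plants grown 2 weeks in a greenhouse were sprayed over the whole foliage with diluted wettable powder at 1000 L/ha, delivering 1000 g active ingredient per hectare. Herbicidal effect scored by visual criteria 14 days after treatment.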

Test [11] relates to Setaria viridis. The test is described as above. The following applies: 1000 g effective component per hectare, day 14 after the treatment. Summed up: as §4
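For herbicidal effect index, Setaria viridis in this document: index 0 to 10 in 10% steps of herbicidal effect with 10 meaning complete death and 0 below 10%.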

Take `Cc1ccccc1-n1c(=O)c(C(=O)C2=C(O)CCCC2=O)nn(C)c1=O` [I-57]: the “Herbicidal effects index number, Echinochloa oryzicola” value in test [1] is recorded as 10. In test [2], the “Herbicidal effects index number, Monochoria vaginalis” value was 10. In [3], the “herbicidal effect index, S. juncoides Rocxb.” value is reported as 10. In addition, the “herbicidal effect index, Amaranthus retroflexus” value in [4] and in test [8] was 10 in each case. Also, the “herbicidal effect index, Echinochloa crus-galli” value in test [5] and in [10] was 10 in each case. The “herbicidal effect index, Abutilon theophrasti” value in [6] and in test [9] was 10 in each case. Moreover, the “herbicidal effect index, Setaria viridis” value in [7] and in [11] was 10 each time.
`Cn1nc(C(=O)C2=C(O)CCCC2=O)c(=O)n(-c2ccc(F)cc2)c1=O` [I-56]: in test [1], the “Herbicidal effects index number, Echinochloa oryzicola” value was determined as 10. Moreover, in test [2], the “Herbicidal effects index number, Monochoria vaginalis” value is on record as 10. Also, the “herbicidal effect index, S. juncoides Rocxb.” value in test [3] was found to be 10. For the same compound, the entries for the “herbicidal effect index, Amaranthus retroflexus” value in test [4] and in test [8] were 9 and 10, respectively. In addition, the “herbicidal effect index, Echinochloa crus-galli” value in [5] and in test [10] was 10 in each case. Besides, the “herbicidal effect index, Abutilon theophrasti” value in [6] and in test [9] was 10 in each case. The “herbicidal effect index, Setaria viridis” value in test [7] and in [11] was 10 throughout.
In the case of `Cn1nc(C(=O)C2=C(O)CCCC2=O)c(=O)n(-c2cc(F)cc(F)c2)c1=O` [I-76], in [1], the “Herbicidal effects index number, Echinochloa oryzicola” value is 10. Besides, in test [2], the “Herbicidal effects index number, Monochoria vaginalis” value came to 10. Besides, the “herbicidal effect index, S. juncoides Rocxb.” value in [3] amounted to 10. In addition, the “herbicidal effect index, Amaranthus retroflexus” value in [4] and in [8] was 10 in each case. Besides, the “herbicidal effect index, Echinochloa crus-galli” value in test [5] and in [10] was 10 throughout. The “herbicidal effect index, Abutilon theophrasti” value in [6] and in [9] was 10 throughout. The “herbicidal effect index, Setaria viridis” value in [7] and in test [11] was 9 in each case.
On to `Cc1ccc(Cl)c(-n2c(=O)c(C(=O)C3=C(O)CCCC3=O)nn(C)c2=O)c1` [I-129], for which the “Herbicidal effects index number, Echinochloa oryzicola” value in [1] is listed as 10. Moreover, in test [2], the “Herbicidal effects index number, Monochoria vaginalis” value is given as 10. Besides, the “herbicidal effect index, S. juncoides Rocxb.” value in test [3] was 10. Further, the “herbicidal effect index, Amaranthus retroflexus” value in test [4] and in test [8] was 10 in each case. For the same compound, the figures for the “herbicidal effect index, Echinochloa crus-galli” value in test [5] and in test [10] were 9 and 10, respectively. Besides, the “herbicidal effect index, Abutilon theophrasti” value in test [6] stood at 10; in test [9] it was 9. Also, the “herbicidal effect index, Setaria viridis” value in test [7] was determined as 10; in test [11], 9.
With `Cn1nc(C(=O)C2=C(O)CCCC2=O)c(=O)n(-c2cccc(F)c2F)c1=O` [I-77], the “Herbicidal effects index number, Echinochloa oryzicola” value in test [1] was found to be 10. Moreover, the “Herbicidal effects index number, Monochoria vaginalis” value in test [2] was 10. The “herbicidal effect index, S. juncoides Rocxb.” value in test [3] turned out to be 10. Besides, the “herbicidal effect index, Amaranthus retroflexus” value in [4] and in test [8] was 10 in each case. In addition, the “herbicidal effect index, Echinochloa crus-galli” value in test [5] stood at 9; in test [10], 10. In addition, the “herbicidal effect index, Abutilon theophrasti” value in test [6] and in [9] was 10 in each case. Besides, the “herbicidal effect index, Setaria viridis” value came to 9 in test [7] and 10 in [11].
For `Cn1nc(C(=O)C2=C(O)CCCC2=O)c(=O)n(-c2cccc(Cl)c2Cl)c1=O` [I-83], in test [1], the “Herbicidal effects index number, Echinochloa oryzicola” value is 10. Also, the “Herbicidal effects index number, Monochoria vaginalis” value in test [2] is listed as 10. In test [3], the “herbicidal effect index, S. juncoides Rocxb.” value amounted to 10. Besides, the “herbicidal effect index, Amaranthus retroflexus” value in [4] and in test [8] was 10 throughout. Also, the “herbicidal effect index, Echinochloa crus-galli” value stood at 9 in test [5] and 10 in [10]. Besides, the “herbicidal effect index, Abutilon theophrasti” value in test [6] and in test [9] was 10 throughout. In addition, the results for the “herbicidal effect index, Setaria viridis” value in test [7] and in [11] were 9 and 10, respectively.
Take `Cn1nc(C(=O)C2=C(O)CCCC2=O)c(=O)n(-c2ccc(Cl)c(Cl)c2)c1=O` [I-81]: the “Herbicidal effects index number, Echinochloa oryzicola” value in [1] was 10. The “Herbicidal effects index number, Monochoria vaginalis” value in test [2] is reported as 10. Further, the “herbicidal effect index, S. juncoides Rocxb.” value in test [3] stood at 10. Moreover, the “herbicidal effect index, Amaranthus retroflexus” value in [4] and in [8] was 10 each time. The “herbicidal effect index, Echinochloa crus-galli” value in [5] is recorded as 9; in [10], 10. Besides, the “herbicidal effect index, Abutilon theophrasti” value in test [6] and in test [9] was 10 each time. Moreover, the entries for the “herbicidal effect index, Setaria viridis” value in test [7] and in test [11] were 7 and 10, respectively.
Turning to `Cn1nc(C(=O)C2=C(O)CCCC2=O)c(=O)n(-c2c(Cl)cccc2Cl)c1=O` [I-86], in [1], the “Herbicidal effects index number, Echinochloa oryzicola” value was found to be 10. Further, the “Herbicidal effects index number, Monochoria vaginalis” value in test [2] is 10. In addition, the “herbicidal effect index, S. juncoides Rocxb.” value in test [3] was 10. Also, the “herbicidal effect index, Amaranthus retroflexus” value in test [4] and in test [8] was 10 throughout. Moreover, the “herbicidal effect index, Echinochloa crus-galli” value in [5] stood at 10; in test [10], 9. Further, the “herbicidal effect index, Abutilon theophrasti” value in [6] is 9; in [9], 10. Further, the “herbicidal effect index, Setaria viridis” value in test [7] and in [11] was 9 each time.
On to `Cn1nc(C(=O)C2=C(O)CCCC2=O)c(=O)n(-c2cc(F)ccc2F)c1=O` [I-79], for which the “Herbicidal effects index number, Echinochloa oryzicola” value in [1] was 10. Further, the “Herbicidal effects index number, Monochoria vaginalis” value in test [2] is on record as 10. Further, the “herbicidal effect index, S. juncoides Rocxb.” value in test [3] is reported as 10. Also, the “herbicidal effect index, Amaranthus retroflexus” value in test [4] and in test [8] was 10 in each case. The results for the “herbicidal effect index, Echinochloa crus-galli” value in test [5] and in [10] were 9 and 10, respectively. Further, the “herbicidal effect index, Abutilon theophrasti” value in [6] and in test [9] was 10 throughout. Moreover, the “herbicidal effect index, Setaria viridis” value in test [7] and in test [11] was 10 each time.
As to `COc1cc(-n2c(=O)c(C(=O)C3=C(O)CCCC3=O)nn(C)c2=O)c(F)cc1Cl` [I-297], in test [1], the “Herbicidal effects index number, Echinochloa oryzicola” value is given as 10. Further, the “Herbicidal effects index number, Monochoria vaginalis” value in test [2] is reported as 10. Besides, the “herbicidal effect index, S. juncoides Rocxb.” value in [3] came to 10. Also, the entries for the “herbicidal effect index, Amaranthus retroflexus” value in test [4] and in test [8] were 10 and 8, respectively. Besides, the “herbicidal effect index, Echinochloa crus-galli” value in [5] came to 10; in [10], 9. For the same compound, the figures for the “herbicidal effect index, Abutilon theophrasti” value in test [6] and in [9] were 9 and 8, respectively. Moreover, the “herbicidal effect index, Setaria viridis” value in test [7] and in test [11] was 9 throughout.
Take `Cc1cc(Cl)ccc1-n1c(=O)c(C(=O)C2=C(O)CCCC2=O)nn(C)c1=O` [I-137]: the “Herbicidal effects index number, Echinochloa oryzicola” value in test [1] is given as 10. The “Herbicidal effects index number, Monochoria vaginalis” value in test [2] was 10. In addition, the “herbicidal effect index, S. juncoides Rocxb.” value in test [3] turned out to be 10. In addition, the “herbicidal effect index, Amaranthus retroflexus” value in test [4] and in test [8] was 10 throughout. Also, the “herbicidal effect index, Echinochloa crus-galli” value in test [5] and in test [10] was 10 throughout. Further, the “herbicidal effect index, Abutilon theophrasti” value in [6] and in test [9] was 10 throughout. Also, the figures for the “herbicidal effect index, Setaria viridis” value in test [7] and in test [11] were 9 and 10, respectively.
Consider `Cn1nc(C(=O)C2=C(O)CCCC2=O)c(=O)n(-c2cccc(C#N)c2)c1=O` [I-73], for which, in test [1], the “Herbicidal effects index number, Echinochloa oryzicola” value is 10. Also, the “Herbicidal effects index number, Monochoria vaginalis” value in [2] stood at 10. Besides, the “herbicidal effect index, S. juncoides Rocxb.” value in test [3] stood at 10. Further, the “herbicidal effect index, Amaranthus retroflexus” value in [4] and in test [8] was 10 each time. For the same compound, the “herbicidal effect index, Echinochloa crus-galli” value in [5] turned out to be 9; in test [10] it was 10. Also, the “herbicidal effect index, Abutilon theophrasti” value in [6] and in [9] was 10 each time. Moreover, the figures for the “herbicidal effect index, Setaria viridis” value in test [7] and in [11] were 8 and 10, respectively.
